These results are taken from patent US8470810B2, “Heterocyclic compounds suitable for treating disorders that respond to modulation of the dopamine D3 receptor” (Abbott GmbH & Co. KG, priority 2004, dated 2013).

Experiment [1] addresses T1, human dopamine D3 receptors (Homo sapiens, UniProt P35462).
T1 construct: expressed in transfected cells
The experiment is described as follows: Dopamine D3 receptor binding, displacement of [125I]-iodosulpride. The settings on record: for Ki: membranes of HEK-293 cells stably expressing human D3, 0.1 nM [125I]-iodosulpride, 25° C., 60 minutes; for Ki(D2)*/Ki(D3)*: selectivity ratio of the receptor binding constants D2 over D3. As to the method: (§1) The substance to be tested was either dissolved in methanol/Chremophor® (BASFAG) or in dimethyl sulfoxide and then diluted with water to the desired concentration.
(§2) Each assay mixture was run in triplicate.
The incubation buffer contained 50 mM tris, 120 mM NaCl, 5 mM KCl, 2 mM CaCl2, 2 mM MgCl2 and 0.1% bovine serum albumin, 10 μM quinolone and 0.1% ascorbic acid (prepared fresh daily). The buffer was adjusted to pH 7.4 with HCl.
(§3) After having been incubated at 25° C. for 60 minutes, the assay mixtures were filtered through a Whatman GF/B glass fiber filter under vacuum using a cell collecting device. The filters were transferred to scintillation viols using a filter transfer system. After 4 ml of Ultima Gold® (Packard) have been added, the samples were shaken for one hour and the radioactivity was then counted in a Beta-Counter (Packard, Tricarb 2000 or 2200CA). The cpm values were converted into dpm using a standard quench series and the program belonging to the instrument.
(§4) The inhibition curves were analyzed by means of iterative nonlinear regression analysis using the Statistical Analysis System (SAS) which is similar to the “LIGAND” program described by Munson and Rodbard.
(§5) The results of the receptro binding studies are expressed as receptor binding constants Ki(D2) and Ki(D3), respectively, as herein before described, and given in table 6.

Experiment [2] deals with T2, human dopamine D2L receptors (long isoform) (Homo sapiens, UniProt P14416).
T2 construct: expressed in transfected cells
The experiment is described as follows: Dopamine D2L receptor binding, displacement of [125I] iodospiperone. Particulars: membranes of HEK-293 cells stably expressing human D2L; 0.01 nM [125I] iodospiperone; 25° C., 60 minutes; read-out: Ki(D2)*. As to the method: as §1, §2
The incubation buffer contained 50 mM tris, 120 mM NaCl, 5 mM KCl, 2 mM CaCl2, 2 mM MgCl2 and 0.1% bovine serum albumin. The buffer was adjusted to pH 7.4 with HCl.
as §3, §4, §5
For orientation: Displacement assays read how much labelled ligand stays bound in the presence of the test substance.

T1 sequence (P35462 whole entry): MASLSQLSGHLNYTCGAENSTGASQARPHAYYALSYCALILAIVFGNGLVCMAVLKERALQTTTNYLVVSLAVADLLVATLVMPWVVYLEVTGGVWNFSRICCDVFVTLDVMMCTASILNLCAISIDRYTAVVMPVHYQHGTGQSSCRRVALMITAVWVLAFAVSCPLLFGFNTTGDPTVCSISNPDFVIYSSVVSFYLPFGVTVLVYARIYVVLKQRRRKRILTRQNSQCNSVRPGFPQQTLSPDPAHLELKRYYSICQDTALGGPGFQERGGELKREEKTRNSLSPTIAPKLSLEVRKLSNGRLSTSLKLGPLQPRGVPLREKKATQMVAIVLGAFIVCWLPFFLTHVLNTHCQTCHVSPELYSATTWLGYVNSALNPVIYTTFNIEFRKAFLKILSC
T2 sequence (P14416 whole entry, canonical isoform): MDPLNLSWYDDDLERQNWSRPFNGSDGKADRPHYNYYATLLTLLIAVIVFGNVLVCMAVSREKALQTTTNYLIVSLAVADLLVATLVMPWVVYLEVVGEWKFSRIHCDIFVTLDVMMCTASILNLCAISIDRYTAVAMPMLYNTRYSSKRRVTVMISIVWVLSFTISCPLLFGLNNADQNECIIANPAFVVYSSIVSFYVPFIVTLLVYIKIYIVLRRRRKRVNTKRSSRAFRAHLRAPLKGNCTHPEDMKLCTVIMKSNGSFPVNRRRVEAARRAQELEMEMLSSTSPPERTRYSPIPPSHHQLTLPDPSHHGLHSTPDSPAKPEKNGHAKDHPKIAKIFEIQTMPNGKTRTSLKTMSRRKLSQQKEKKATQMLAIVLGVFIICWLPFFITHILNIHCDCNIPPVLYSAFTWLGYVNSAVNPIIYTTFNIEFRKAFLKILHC

As usually defined, the Ki is the dissociation constant of the complex between target and ligand, obtained from inhibition or displacement. Regarding `CCCN1CC[C@@H](c2ccc(NS(=O)(=O)c3ccc(OC(F)(F)F)cc3)cc2)C1.Cl` [Example 7, 4-Trifluoromethoxy-N-[4-((S)-1-propyl-pyrrolidin-3-yl)-phenyl]-benzenesulfonamide hydrochloride], the results for the Ki in experiment [1] and in experiment [2] were 3.5 nM and 212 nM, respectively. In experiment [1], the “Ki(D2)*/Ki(D3)*” value was 61.

For the molecule `CCCN1CC[C@@H](c2ccc(NS(=O)(=O)c3ccc(C(F)(F)F)cc3)cc2)C1.Cl` [Example 8, 4-Trifluoromethyl-N-[4-((S)-1-propyl-pyrrolidin-3-yl)-phenyl]-benzenesulfonamide hydrochloride], in experiment [1], the inhibition constant Ki was determined as 4.1 nM and the “Ki(D2)*/Ki(D3)*” value was determined as 57. The Ki in experiment [2] was 235 nM.

In the case of `CCCN1CC[C@@H](c2ccc(NS(=O)(=O)c3ccc(OC(F)F)cc3)cc2)C1.Cl` [Example 9, 4-Difluoromethoxy-N-[4-((S)-1-propyl-pyrrolidin-3-yl)-phenyl]-benzenesulfonamide hydrochloride], in experiment [1], the Ki amounted to 2.6 nM and the “Ki(D2)*/Ki(D3)*” value stood at 49. The Ki in experiment [2] is 129 nM.

As for `CCCN1CC[C@@H](c2ccc(NS(=O)(=O)c3ccc(C)cc3)cc2)C1.Cl` [Example 10, 4-Methyl-N-[4-((S)-1-propyl-pyrrolidin-3-yl)-phenyl]-benzenesulfonamide hydrochloride], in experiment [1], the Ki was found to be 1.9 nM and the “Ki(D2)*/Ki(D3)*” value is given as 60. Also, the Ki in experiment [2] came out at 111 nM.

On to `CCCN1CC[C@@H](c2ccc(NS(=O)(=O)c3ccc(OC)cc3)cc2)C1` [Example 12, 4-Methoxy-N-[4-((S)-1-propyl-pyrrolidin-3-yl)-phenyl]-benzenesulfonamide], for which, in experiment [1], the Ki worked out at 3 nM and the “Ki(D2)*/Ki(D3)*” value was found to be 43. Moreover, in experiment [2], the Ki amounted to 131 nM.

For the molecule `CCCN1CC[C@@H](c2ccc(NS(=O)(=O)c3ccc(Cl)cc3)cc2)C1` [Example 13, 4-Chloro-N-[4-((S)-1-propyl-pyrrolidin-3-yl)-phenyl]-benzenesulfonamide], in experiment [1], the Ki turned out to be 3.1 nM and the “Ki(D2)*/Ki(D3)*” value stood at 54. The Ki in experiment [2] was 168 nM.

Consider `CCCN1CC[C@@H](c2ccc(NS(=O)(=O)c3ccc4c(c3)CCO4)cc2)C1` [Example 14, 2,3-Dihydro-benzofuran-5-sulfonic acid [4-((S)-1-propyl-pyrrolidin-3-yl)-phenyl]-amide], for which, in experiment [1], the affinity corresponds to a Ki of 3.4 nM and the “Ki(D2)*/Ki(D3)*” value is listed as 37. Further, the inhibitory constant (Ki) in experiment [2] is 123 nM.

`CCCN1CC[C@@H](c2ccc(NS(=O)(=O)c3ccc(Br)c(F)c3)cc2)C1` [Example 15, 4-Bromo-3-fluoro-N-[4-((S)-1-propyl-pyrrolidin-3-yl)-phenyl]-benzenesulfonamide]: in experiment [1], the Ki came out at 1.9 nM and the “Ki(D2)*/Ki(D3)*” value turned out to be 39. Besides, in experiment [2], the Ki came to 74 nM.

Turning to `CCCN1CC[C@@H](c2ccccc2NS(=O)(=O)c2ccc(Br)c(F)c2)C1` [Example 16, 4-Bromo-3-fluoro-N-[2-((S)-1-propyl-pyrrolidin-3-yl)-phenyl]-benzenesulfonamide], in experiment [1], the affinity, expressed as Ki, was 12.6 nM and the “Ki(D2)*/Ki(D3)*” value was found to be 31. The inhibitory constant (Ki) in experiment [2] came out at 393 nM.

On to `CCCN1CC[C@@H](c2ccc(NS(=O)(=O)c3ccc(Br)cc3F)cc2)C1` [Example 17, 4-Bromo-2-fluoro-N-[4-((S)-1-propyl-pyrrolidin-3-yl)-phenyl]-benzenesulfonamide], for which, in experiment [1], affinity was put at a Ki of 3.1 nM and the “Ki(D2)*/Ki(D3)*” value was determined as 41. In experiment [2], the Ki amounted to 126 nM.

With `CC(C)c1ccc(S(=O)(=O)Nc2ccc([C@@H]3CCNC3)cc2)cc1` [Example 18, 4-Isopropyl-N-[4-((S)-pyrrolidin-3-yl)-phenyl]-benzenesulfonamide], in experiment [1], affinity was put at a Ki of 2.3 nM and the “Ki(D2)*/Ki(D3)*” value is given as 39. Further, the Ki in experiment [2] is 90 nM.

Take `C=C(C)c1ccc(S(=O)(=O)Nc2ccc([C@@H]3CCN(CCC)C3)cc2)c(F)c1` [Example 19, 2-Fluoro-4-isopropenyl-N-[4-((S)-1-propyl-pyrrolidin-3-yl)-phenyl]-benzenesulfonamide]: in experiment [1], the affinity corresponds to a Ki of 0.48 nM and the “Ki(D2)*/Ki(D3)*” value was determined as 26. The Ki in experiment [2] came out at 12.6 nM.

Take `C=C(C)c1ccc(S(=O)(=O)Nc2ccc([C@@H]3CCN(CCC)C3)cc2)cc1F` [Example 20, 3-Fluoro-4-isopropenyl-N-[4-((S)-1-propyl-pyrrolidin-3-yl)-phenyl]-benzenesulfonamide]: in experiment [1], the inhibition constant Ki came to 0.3 nM and the “Ki(D2)*/Ki(D3)*” value is given as 24. The Ki in experiment [2] was determined as 7.3 nM.

On to `CCCN1CC[C@@H](c2ccc(NS(=O)(=O)c3ccc(C(C)C)cc3F)cc2)C1` [Example 21, 2-Fluoro-4-isopropyl-N-[4-((S)-1-propyl-pyrrolidin-3-yl)-phenyl]-benzenesulfonamide], for which, in experiment [1], affinity was put at a Ki of 0.4 nM and the “Ki(D2)*/Ki(D3)*” value was found to be 27. Besides, the Ki in experiment [2] came to 11 nM.

For the molecule `CCCN1CC[C@@H](c2ccc(NS(=O)(=O)c3ccc(OC(C)C)cc3)cc2)C1.Cl` [Example 23, 4-Isopropoxy-N-[4-((S)-1-propyl-pyrrolidin-3-yl)-phenyl]-benzenesulfonamide hydrochloride], in experiment [1], affinity was put at a Ki of 1.07 nM and the “Ki(D2)*/Ki(D3)*” value is recorded as 44. For the same molecule, the Ki in experiment [2] came out at 46.6 nM.

For `CCCN1CC[C@@H](c2ccc(NS(=O)(=O)c3ccc4c(c3)CCC4)cc2)C1.Cl` [Example 24, Indan-5-sulfonic acid [4-((S)-1-propyl-pyrrolidin-3-yl)-phenyl]-amide hydrochloride], in experiment [1], the affinity, expressed as Ki, was 1.2 nM and the “Ki(D2)*/Ki(D3)*” value was 60. Moreover, the Ki in experiment [2] is 72 nM.

In the case of `CCCN1CC[C@@H](c2ccc(NS(=O)(=O)c3ccc(Br)cc3)cc2)C1.Cl` [Example 25, 4-Bromo-N-[4-((S)-1-propyl-pyrrolidin-3-yl)-phenyl]-benzenesulfonamide hydrochloride], in experiment [1], the Ki is 1.6 nM and the “Ki(D2)*/Ki(D3)*” value was determined as 60. The Ki in experiment [2] worked out at 95 nM.

Turning to `CCCN1CC[C@@H](c2ccc(NS(=O)(=O)c3ccc(C(C)=O)cc3)cc2)C1` [Example 26, 4-Acetyl-N-[4-((S)-1-propyl-pyrrolidin-3-yl)-phenyl]-benzenesulfonamide], in experiment [1], affinity was put at a Ki of 28.1 nM and the “Ki(D2)*/Ki(D3)*” value was 46. Further, the Ki in experiment [2] worked out at 1280 nM.

Turning to `CCCN1CC[C@@H](c2ccc(NS(=O)(=O)c3ccc(C4CC4)cc3)cc2)C1` [Example 27, 4-Cyclopropyl-N-[4-((S)-1-propyl-pyrrolidin-3-yl)-phenyl]-benzenesulfonamide], the Ki in experiment [1] was found to be 0.23 nM; in experiment [2], 7.1 nM. In experiment [1], the “Ki(D2)*/Ki(D3)*” value was 30.

Consider `CCCN1CC[C@@H](c2ccc(NS(=O)(=O)c3ccc(Br)s3)cc2)C1.Cl` [Example 28, 5-Bromo-thiophene-2-sulfonic acid [4-((S)-1-propyl-pyrrolidin-3-yl)-phenyl]-amide hydrochloride], for which the Ki in experiment [1] is 3.3 nM; in experiment [2] it was 133 nM. Moreover, in experiment [1], the “Ki(D2)*/Ki(D3)*” value is given as 41.

For `C=C(C)c1ccc(S(=O)(=O)Nc2ccc([C@@H]3CCN(CCC)C3)cc2)s1` [Example 29, 5-Isopropenyl-thiophene-2-sulfonic acid [4-((S)-1-propyl-pyrrolidin-3-yl)-phenyl]-amide], in experiment [1], the inhibitory constant (Ki) came out at 0.67 nM and the “Ki(D2)*/Ki(D3)*” value is 41. The inhibition constant Ki in experiment [2] was 27.3 nM.

On to `CCCc1ccc(S(=O)(=O)Nc2ccc([C@@H]3CCN(CCC)C3)cc2)cc1.Cl` [Example 30, 4-Propyl-N-[4-((S)-1-propyl-pyrrolidin-3-yl)-phenyl]-benzenesulfonamide hydrochloride], for which, in experiment [1], the inhibition constant Ki came to 0.28 nM and the “Ki(D2)*/Ki(D3)*” value stood at 42. Further, the Ki in experiment [2] stood at 11.7 nM.

Regarding `CCCN1CCC(c2ccc(NS(=O)(=O)c3ccc(C(C)C)cc3)cn2)C1` (stereo not drawn) [Example 31, N-[6-(1-propyl-pyrrolidin-3-yl)-pyridin-3-yl]-4-isopropyl-benzene-sulfonamide], in experiment [1], affinity was put at a Ki of 10.8 nM and the “Ki(D2)*/Ki(D3)*” value is 24. In experiment [2], the Ki was 257 nM.

`CCCN1CC[C@@H](c2ccc(NS(=O)(=O)c3ccc(C(C)CC)cc3)cc2)C1.Cl` (stereo partly drawn) [Example 33, 4-sec-Butyl-N-[4-((S)-1-propyl-pyrrolidin-3-yl)-phenyl]-benzenesulfonamide hydrochloride]: in experiment [1], the Ki came out at 0.17 nM and the “Ki(D2)*/Ki(D3)*” value was found to be 33. Besides, the Ki in experiment [2] came to 5.47 nM.

Consider `CCCN1CC[C@@H](c2ccc(NS(=O)(=O)c3cc(F)c(Br)cc3F)cc2)C1` [Example 34], for which the figures for the Ki in experiment [1] and in experiment [2] were 5.1 nM and 174 nM, respectively. The “Ki(D2)*/Ki(D3)*” value in experiment [1] stood at 34.

For the molecule `CCCN1CC[C@@H](c2ccc(NS(=O)(=O)c3ccc(CC(C)C)cc3)cc2)C1.Cl` [Example 35, 4-Isobutyl-N-[4-((S)-1-propyl-pyrrolidin-3-yl)-phenyl]-benzenesulfonamide hydrochloride], in experiment [1], the Ki is 0.3 nM and the “Ki(D2)*/Ki(D3)*” value is recorded as 24. Moreover, in experiment [2], the Ki was 7.4 nM.
